Measured values: patent US7781454B2 (priority 2006, dated 2010)
Counter-ions that a name gives are not always drawn. Like-named read-outs stand apart in the source and are kept apart here.

Legend:
[1] = molecular target: HIV-1 RT enzyme (wild-type) (Human immunodeficiency virus type 1 group M subtype B, UniProt P04585); test: ECL assay for inhibition of HIV reverse transcriptase (WT); assay type: biochemical
Procedure: (§1) 100 μL reaction mixtures were initiated with a combination of primer-template substrate ([…]) and dNTPs (0.6 μM dNTPs, 1.25 μM BrdUTP). The heterodimeric nucleic acid substrate was generated by annealing the DNA primer pD500 (described in Shaw-Reid et al., J. Biol. Chem., 278: 2777-2780; obtained from Integrated DNA Technologies) to t500, a 500 nucleotide RNA template created by in vitro transcription (see Shaw-Reid et al., J. Biol. Chem., 278: 2777-2780). After 1 hour incubation at 37° C., reactions were quenched by 10 μL of 1 N NaOH. Microtiter plates were incubated for an additional 30 minutes at room temperature and then neutralized with 10 μL of 1 N HCl. A mixture of detection buffer containing ruthenylated anti-BrdU antibody and streptavidin coated magnetic beads were added to the plate and incubated at room temperature for 1.5 hours prior to quantification via electrochemiluminescence instrument.

[2] = molecular target: T1, mutant HIV reverse transcriptase (K103N mutation) (Human immunodeficiency virus type 1 group M subtype B, UniProt P04585, K690N); test: ECL assay for inhibition of mutant HIV reverse transcriptase (K103N); assay type: biochemical
T1 construct: against mutant HIV reverse transcriptase; made in house
Procedure: as §1
(§2) Analogous assays were conducted substituting mutant HIV strains to determine the in vitro inhibition of compounds of the present invention against mutant HIV reverse transcriptase. In one strain the reverse transcriptase has the Y181C mutation and in the other strain the reverse transcriptase has the K103N mutation. The mutations were generated with the QUIKCHANGE site-directed mutagenesis kit (Stratagene).

[3] = molecular target: T2, mutant HIV reverse transcriptase (Y181C mutation) (Human immunodeficiency virus type 1 group M subtype B, UniProt P04585, Y768C); test: ECL assay for inhibition of mutant HIV reverse transcriptase (Y181C); assay type: biochemical
T2 construct: against mutant HIV reverse transcriptase; made in house
Procedure: as §1, §2

wild type HIV-1 = test: Spread assay: inhibition of acute HIV-1 infection of T-lymphoid cells (WT); assay type: cell-based; conditions: Human immunodeficiency virus 1, T-lymphoid; wild-type strain; 10% FBS; read-out: Spread (WT) CIC95
Procedure: (§3) Assays for the inhibition of acute HIV-1 infection of T-lymphoid cells (alternatively referred to herein as the “spread assay”) were conducted in accordance with Vacca, J. P. et al., Proc. Natl. Acad. Sci. USA 1994, 91: 4096. The assays tested for inhibition of wild type HIV-1 and of HIV strains containing the Y181C or K103N mutation. […] The compounds of Examples 1 to 4 had CIC95 values of less than 10 micromolar in the assay employing the K103N mutant strain. […] Table C also reports the CIC95 values of the compounds of Examples 1-7, 9-13 and 15-29 obtained in the assays employing the Y181C mutant strain and the K103N mutant strain.

[4] = tested on: HIV strain containing the K103N mutation; test: Spread assay: inhibition of HIV replication (K103N mutant strain); assay type: cell-based; conditions: Human immunodeficiency virus 1, read-out: Spread (K103N) CIC95
Procedure: as §3

[5] = tested on: HIV strain containing the Y181C mutation; test: Spread assay: inhibition of HIV replication (Y181C mutant strain); assay type: cell-based; conditions: Human immunodeficiency virus 1, read-out: Spread (Y181C) CIC95
Procedure: as §3

[6] = K103N mutant RT, read-out: ECL Assay (K103N) IC50
[7] = Y181C mutant RT, read-out: ECL Assay (Y181C) IC50

| SMILES | IC50 [1] [nM] | IC50 [2, 6] [nM] | IC50 [3, 7] [nM] | IC95 (wild type HIV-1) [µM] | IC95 [4] [µM] | IC95 [5] [µM] | IC50 [2] [nM] | IC50 [3] [nM] |
| --- | --- | --- | --- | --- | --- | --- | --- | --- |
| N#Cc1cc(Cl)cc(Oc2c(Cl)ccc3c2nnn3Cc2n[nH]c3nc(N)ccc23)c1 [Example 6, 3-({1-[(6-amino-1H-pyrazolo[3,4-b]pyridin-3-yl)methyl]-5-chloro-1H-1,2,3-benzotriazol-4-yl}oxy)-5-chlorobenzonitrile] | 0.4 | 0.53 | 0.82 | 0.003 | < 0.004 | 0.025 | – | – |
| N#Cc1cc(Cl)cc(Oc2c(Cl)ccc3c2ncn3Cc2n[nH]c3ncccc23)c1 [Example 7, 3-chloro-5-{[5-chloro-1-(1H-pyrazolo[3,4-b]pyridin-3-ylmethyl)-1H-benzimidazol-4-yl]oxy}benzonitrile dihydrochloride] | 0.92 | – | – | 0.028 | 0.039 | 0.225 | 4.1 | 1.7 |
| N#Cc1cc(Cl)cc(Oc2c(Cl)ccc3c2ncn3Cc2n[nH]c3nc(N)ccc23)c1 [Example 10, 3-({1-[(6-amino-1H-pyrazolo[3,4-b]pyridin-3-yl)methyl]-5-chloro-1H-benzimidazol-4-yl}oxy)-5-chlorobenzonitrile bis(trifluoroacetate)] | 1.5 | – | – | 0.021 | 0.085 | 0.468 | 13 | 13 |
| N#Cc1cc(Cl)cc(Oc2c(Cl)ccc3c2nnn3CC(=O)Nc2ccccc2Cl)c1 [Example 12, 2-[5-chloro-4-(3-chloro-5-cyanophenoxy)-1H-1,2,3-benzotriazol-1-yl]-N-(2-chlorophenyl)acetamide] | 0.45 | 0.94 | 0.89 | 0.023 | 0.041 | 0.137 | – | – |
| N#Cc1cc(Cl)cc(Oc2c(Cl)ccc3c2nnn3CC(=O)Nc2ccncc2C(F)(F)F)c1 [Example 13, 2-[5-chloro-4-(3-chloro-5-cyanophenoxy)-1H-1,2,3-benzotriazol-1-yl]-N-[3-(trifluoromethyl)pyridin-4-yl]acetamide] | 1 | 3 | 2.4 | 0.045 | 0.151 | 0.382 | – | – |
| NCc1cc(Cl)cc(Oc2c(Cl)ccc3c2nnn3Cc2n[nH]c3ncccc23)c1 [Example 17, (3-chloro-5-{[5-chloro-1-(1H-pyrazolo[3,4-b]pyridin-3-ylmethyl)-1H-1,2,3-benzotriazol-4-yl]oxy}phenyl)methanaminium trifluoroacetate] | 38 | – | – | 0.06 | 0.262 | > 0.833 | 79 | 74 |
| O=Cc1cc(Cl)cc(Oc2c(Cl)ccc3c2nnn3Cc2n[nH]c3ncccc23)c1 [Example 18, 3-chloro-5-{[5-chloro-1-(1H-pyrazolo[3,4-b]pyridin-3-ylmethyl)-1H-1,2,3-benzotriazol-4-yl]oxy}benzaldehyde] | 2.1 | 2.6 | 3.7 | 0.055 | 0.154 | 0.825 | – | – |
| N#Cc1cc(Cl)cc(Oc2c(Cl)ccc3c2nnn3Cc2n[nH]c3ncccc23)c1Cl [Example 19, 2,5-dichloro-3-{[5-chloro-1-(1H-pyrazolo[3,4-b]pyridin-3-ylmethyl)-1H-1,2,3-benzotriazol-4-yl]oxy}benzonitrile] | 0.57 | 0.93 | 0.77 | 0.007 | 0.015 | 0.027 | – | – |
